Measured values as given in patent US9212182B2, “Bicyclic sulfonamide compounds as sodium channel inhibitors” (AMGEN INC., priority 2013, dated 2015).

Target: Nav 1.7 (Homo sapiens (Human), UniProt Q15858)
Test: in-vitro Nav 1.7 PX (IC50)
Format: cell-based
Settings: not given

Nav 1.7, sequence (Q15858 whole entry): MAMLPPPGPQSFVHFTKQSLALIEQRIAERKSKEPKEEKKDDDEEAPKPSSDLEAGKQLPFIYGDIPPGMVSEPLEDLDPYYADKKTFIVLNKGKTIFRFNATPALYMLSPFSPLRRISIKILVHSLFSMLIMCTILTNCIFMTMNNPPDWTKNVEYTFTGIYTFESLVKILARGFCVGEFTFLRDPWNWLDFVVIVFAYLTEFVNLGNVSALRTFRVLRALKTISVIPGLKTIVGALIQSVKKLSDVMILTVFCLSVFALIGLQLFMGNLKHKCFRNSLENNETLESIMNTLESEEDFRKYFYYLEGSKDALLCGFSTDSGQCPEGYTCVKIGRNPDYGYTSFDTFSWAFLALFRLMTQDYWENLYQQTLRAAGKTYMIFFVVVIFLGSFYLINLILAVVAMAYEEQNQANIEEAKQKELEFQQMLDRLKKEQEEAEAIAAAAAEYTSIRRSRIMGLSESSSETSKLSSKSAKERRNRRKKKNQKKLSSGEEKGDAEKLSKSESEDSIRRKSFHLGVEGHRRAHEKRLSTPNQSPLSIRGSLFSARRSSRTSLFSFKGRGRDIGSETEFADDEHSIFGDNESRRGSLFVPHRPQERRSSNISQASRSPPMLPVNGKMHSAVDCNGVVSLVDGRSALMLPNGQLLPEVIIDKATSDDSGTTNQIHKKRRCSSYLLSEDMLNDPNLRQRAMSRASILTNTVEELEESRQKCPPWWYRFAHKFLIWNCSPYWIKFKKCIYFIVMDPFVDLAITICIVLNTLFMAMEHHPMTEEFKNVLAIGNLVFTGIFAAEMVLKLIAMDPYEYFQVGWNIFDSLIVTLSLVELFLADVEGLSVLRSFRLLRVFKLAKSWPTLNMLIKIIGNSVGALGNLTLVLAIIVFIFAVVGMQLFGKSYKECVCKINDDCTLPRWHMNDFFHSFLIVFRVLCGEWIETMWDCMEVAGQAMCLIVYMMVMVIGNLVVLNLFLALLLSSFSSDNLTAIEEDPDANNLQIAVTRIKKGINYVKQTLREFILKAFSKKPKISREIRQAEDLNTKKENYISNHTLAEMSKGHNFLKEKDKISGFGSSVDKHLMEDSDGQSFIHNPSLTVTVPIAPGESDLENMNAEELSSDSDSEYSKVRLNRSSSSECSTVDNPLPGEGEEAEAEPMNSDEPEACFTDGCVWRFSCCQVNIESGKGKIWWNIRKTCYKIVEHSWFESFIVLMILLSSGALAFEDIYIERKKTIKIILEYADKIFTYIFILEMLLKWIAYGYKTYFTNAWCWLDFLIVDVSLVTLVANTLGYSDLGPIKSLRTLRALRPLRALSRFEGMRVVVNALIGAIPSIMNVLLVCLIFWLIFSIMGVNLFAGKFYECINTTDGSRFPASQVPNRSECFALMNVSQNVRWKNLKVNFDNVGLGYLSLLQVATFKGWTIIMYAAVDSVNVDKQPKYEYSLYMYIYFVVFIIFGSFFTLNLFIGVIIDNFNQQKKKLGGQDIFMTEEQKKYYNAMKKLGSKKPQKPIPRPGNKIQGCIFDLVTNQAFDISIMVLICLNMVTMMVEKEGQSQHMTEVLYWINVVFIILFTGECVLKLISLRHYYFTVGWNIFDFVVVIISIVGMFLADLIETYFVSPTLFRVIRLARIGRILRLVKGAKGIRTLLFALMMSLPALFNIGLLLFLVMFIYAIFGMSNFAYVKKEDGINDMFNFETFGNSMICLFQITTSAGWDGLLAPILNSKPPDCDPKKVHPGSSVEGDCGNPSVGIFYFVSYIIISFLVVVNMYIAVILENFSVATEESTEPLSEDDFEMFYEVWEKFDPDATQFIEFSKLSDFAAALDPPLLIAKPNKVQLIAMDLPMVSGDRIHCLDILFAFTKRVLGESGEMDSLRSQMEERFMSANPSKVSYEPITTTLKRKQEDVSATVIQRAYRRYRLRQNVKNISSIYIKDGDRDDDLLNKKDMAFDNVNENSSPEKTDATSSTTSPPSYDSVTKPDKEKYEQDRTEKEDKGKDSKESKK

IC50 [nM] | SMILES
471 | CO[C@H]1CCCC[C@@H]1n1c(=O)ccc2cc(S(=O)(=O)Nc3ncns3)ccc21 (racemic) [Example 1145, (±)-1-((1S,2S)-2-methoxycyclohexyl)-2-oxo-N-1,2,4-thiadiazol-5-yl-1,2-dihydro-6-quinolinesulfonamide]
62 | COc1cc(-c2ccc(F)c(F)c2)c(F)cc1-n1c(=O)cnc2cc(S(=O)(=O)Nc3ccon3)ccc21 [Example 1179, N-3-isoxazolyl-2-oxo-1-(2,3′,4′-trifluoro-5-methoxy-4-biphenylyl)-1,2-dihydro-6-quinoxalinesulfonamide]
2590 | COc1nc(Oc2ccc(F)cc2F)c(Cl)cc1-n1c(=O)ccc2cc(S(=O)(=O)Nc3ccon3)ccc21 [Example 1221, 1-(5-chloro-6-(2,4-difluorophenoxy)-2-methoxy-3-pyridinyl)-N-3-isoxazolyl-2-oxo-1,2-dihydro-6-quinolinesulfonamide]
5570 | O=c1ccc2cc(S(=O)(=O)Nc3ccon3)ccc2n1-c1ccc(-c2cccc(F)c2)cc1CC(O)CO (racemic) [Example 327, 1-(3-((2R)-2,3-dihydroxypropyl)-3′-fluoro-4-biphenylyl)-N-3-isoxazolyl-2-oxo-1,2-dihydro-6-quinolinesulfonamide, 1-(3-((2S)-2,3-dihydroxypropyl)-3′-fluoro-4-biphenylyl)-N-3-isoxazolyl-2-oxo-1,2-dihydro-6-quinolinesulfonamide]
290 | COc1cc(-c2cccc(OC(C)C)c2)ccc1-n1c(=O)ccc2cc(S(=O)(=O)Nc3cc(C)ncn3)ccc21 (atropisomer, axis not shown; (P)) [Example 1205, (P)-1-(3-methoxy-3′-(1-methylethoxy)-4-biphenylyl)-N-(6-methyl-4-pyrimidinyl)-2-oxo-1,2-dihydro-6-quinolinesulfonamide]
2450 | COc1ccc(-c2cccnc2F)cc1-n1c(=O)ccc2cc(S(=O)(=O)Nc3ccon3)ccc21 [Example 495, 1-(5-(2-fluoro-3-pyridinyl)-2-methoxyphenyl)-N-3-isoxazolyl-2-oxo-1,2-dihydro-6-quinolinesulfonamide]
6640 | COc1cc(Br)c(F)cc1-n1c(=O)ccc2cc(S(=O)(=O)Nc3cc(OCC4CCCC4)ncn3)ccc21 (atropisomer, axis not shown; (P)) [Example 1185, (P)-1-(4-bromo-5-fluoro-2-methoxyphenyl)-N-(6-(cyclopentylmethoxy)-4-pyrimidinyl)-2-oxo-1,2-dihydro-6-quinolinesulfonamide]

SMILES | IC50 [nM]
COc1cc(-c2cccc(C(F)(F)F)c2)c(Cl)cc1-n1c(=O)ccc2cc(S(=O)(=O)Nc3ccon3)ccc21 (atropisomer, axis not shown; (M)) [Example 534, (M)-1-(2-chloro-5-methoxy-3′-(trifluoromethyl)-[1,1′-biphenyl]-4-yl)-N-(isoxazol-3-yl)-2-oxo-1,2-dihydroquinoline-6-sulfonamide] | 1350

Same assay, conditions: in-vitro Nav 1.7 PX data

IC50 [nM] | SMILES
36 | COc1cc(-c2cc(OC)c(-n3c(=O)ccc4cc(S(=O)(=O)Nc5ncccn5)ccc43)cc2C)ccc1F [Example 960, 1-(4′-fluoro-3′,5-dimethoxy-2-methyl-4-biphenylyl)-2-oxo-N-2-pyrimidinyl-1,2-dihydro-6-quinolinesulfonamide]
161 | COc1nc(OCC(F)(F)C(F)(F)F)c(Cl)cc1-n1c(=O)ccc2cc(S(=O)(=O)Nc3ccon3)ccc21 [Example 832, 1-(5-chloro-2-methoxy-6-(2,2,3,3,3-pentafluoropropoxy)-3-pyridinyl)-N-3-isoxazolyl-2-oxo-1,2-dihydro-6-quinolinesulfonamide]
111 | COc1cc(-c2cc(Cl)cnc2OC)c(F)cc1-n1c(=O)ccc2cc(S(=O)(=O)Nc3ccnc(C)n3)ccc21 [Example 778, 1-(4-(5-chloro-2-methoxy-3-pyridinyl)-5-fluoro-2-methoxyphenyl)-N-(2-methyl-4-pyrimidinyl)-2-oxo-1,2-dihydro-6-quinolinesulfonamide]
100 | COc1cc(-c2ccc(F)cc2)c(F)cc1-n1c(=O)ccc2cc(S(=O)(=O)Nc3ncc(F)cn3)ccc21 [Example 769, 1-(2,4′-difluoro-5-methoxy-4-biphenylyl)-N-(5-fluoro-2-pyrimidinyl)-2-oxo-1,2-dihydro-6-quinolinesulfonamide]
132 | COc1cc(-c2ccc(C#N)cc2)c(F)cc1-n1c(=O)ccc2cc(S(=O)(=O)Nc3ccon3)ccc21 [Example 754, 1-(4′-cyano-2-fluoro-5-methoxy-4-biphenylyl)-N-3-isoxazolyl-2-oxo-1,2-dihydro-6-quinolinesulfonamide]
31 | COc1cc(-c2ccc(F)c(C)c2)c(F)cc1-n1c(=O)ccc2cc(S(=O)(=O)Nc3ncc(F)cn3)ccc21 [Example 942, 1-(2,4′-difluoro-5-methoxy-3′-methyl-4-biphenylyl)-N-(5-fluoro-2-pyrimidinyl)-2-oxo-1,2-dihydro-6-quinolinesulfonamide]
24 | CCOc1cccc(-c2ccc(-n3c(=O)ccc4cc(S(=O)(=O)Nc5ccon5)ccc43)c(OC)c2)c1 [631/779, 1-(3′-ethoxy-3-methoxy-4-biphenylyl)-N-3-isoxazolyl-2-oxo-1,2-dihydro-6-quinolinesulfonamide]
70 | COc1cccc(-c2cc(OC)c(-n3c(=O)ccc4cc(S(=O)(=O)Nc5ccon5)ccc43)cc2F)n1 [Example 805, 1-(5-fluoro-2-methoxy-4-(6-methoxy-2-pyridinyl)phenyl)-N-3-isoxazolyl-2-oxo-1,2-dihydro-6-quinolinesulfonamide]
675 | COc1ccc(-c2cc(F)cc(Cl)c2)cc1-n1c(=O)ccc2cc(S(=O)(=O)Nc3ccon3)ccc21 [Example 859, 1-(3′-chloro-5′-fluoro-4-methoxy-3-biphenylyl)-N-3-isoxazolyl-2-oxo-1,2-dihydro-6-quinolinesulfonamide]
23 | COc1cc(Cl)cc(-c2cc(OC)c(-n3c(=O)ccc4cc(S(=O)(=O)Nc5ncc(F)cn5)ccc43)cc2F)c1 [Example 929, 1-(3′-chloro-2-fluoro-5,5′-dimethoxy-4-biphenylyl)-N-(5-fluoro-2-pyrimidinyl)-2-oxo-1,2-dihydro-6-quinolinesulfonamide]
460 | COc1nc(OCC2(C)CC2)c(Cl)cc1-n1c(=O)ccc2cc(S(=O)(=O)Nc3ccon3)ccc21 [Example 822, 1-(5-chloro-2-methoxy-6-((1-methylcyclopropyl)methoxy)-3-pyridinyl)-N-3-isoxazolyl-2-oxo-1,2-dihydro-6-quinolinesulfonamide]
12 | COc1ccc(-c2ccc(C)c(Cl)c2)cc1-n1c(=O)ccc2cc(S(=O)(=O)Nc3ccon3)ccc21 [Example 885, 1-(3′-chloro-4-methoxy-4′-methyl-3-biphenylyl)-N-3-isoxazolyl-2-oxo-1,2-dihydro-6-quinolinesulfonamide]

Same assay, conditions: in-vitro Nav 1.7 PX data (PatchXpress)

IC50 [nM] | SMILES
1730 | O=c1ccc2cc(S(=O)(=O)Nc3ccon3)ccc2n1-c1cc(F)c(-c2cc(F)cc(F)c2)cc1O [Example 624, N-(isoxazol-3-yl)-2-oxo-1-(2,3′,5′-trifluoro-5-hydroxy-[1,1′-biphenyl]-4-yl)-1,2-dihydroquinoline-6-sulfonamide]

Same assay, conditions: in-vitro PatchXpress (PX)

IC50 [nM] | SMILES
2430 | COc1cc(-c2cccc(C(F)(F)F)c2)ccc1-n1c(=O)ccc2cc(S(=O)(=O)Nc3cccnn3)ccc21 (atropisomer, axis not shown; (M)) [Example 370, (M)-1-(3-methoxy-3′-(trifluoromethyl)-4-biphenylyl)-2-oxo-N-3-pyridazinyl-1,2-dihydro-6-quinolinesulfonamide]
